# Results from US6758840B2, “Drug delivery device” (Metris Therapeutics Limited, priority 2000, dated 2004).
# Experiments:
# [1] = Plasma mefenamic acid after intra-vaginal device with wax layer (Example 3); format: in vivo, Rhesus monkeys; details: intra-vaginal tampon device, wax fluid-impermeable layer, mefenamic acid dusted on; Rhesus monkey plasma
# Source text: Further devices according to the present invention were made and used to deliver a pharmaceutical agent intra-vaginally in Rhesus monkeys.
# (§1) Materials used in the manufacture of commercial tampons for human use were reconstituted to produce tampons with dimensions 7 mm×25 mm or 5 mm×25 mm. Depending on the weight of an individual Rhesus monkey, one of these sizes of tampon was able to be conveniently inserted into the vagina of the Rhesus monkey.
# Wax material was used to create a fluid-impermeable layer of the tampons by warming the wax layer to make it adhere to the body of the tampon. Once the wax layer had been applied, mefenamic acid was “dusted” onto the device while the device was warmed to aid adhesion between the wax and the mefenamic acid. Non-adherent mefenamic acid was removed.
# (§2) Rhesus monkeys were anaesthetised with ketamine hydrochloride and one of the above-mentioned tampon devices was inserted into the vagina of each monkey. A 19 gauge catheter was inserted into the saphenous vein of each monkey. This catheter was used to collect blood samples during the course of the study. The monkeys were returned to their cages when appropriate.
# (§3) Blood samples were taken at intervals and plasma was prepared and frozen. After the completion of the study, all plasma samples were assayed for the concentration of mefenamic acid.
# [2] = Comparison of uptake of mefenamic acid from device and from slurry (Example 5); format: in vivo; details: Rhesus monkeys
# Source text: A comparison was made between the uptake of mefenamic acid in Rhesus monkeys where the mefenamic acid was introduced intra-vaginally using the devices of Example 3 and the uptake of mefenamic acid in Rhesus monkeys where a slurry comprising mefenamic acid was introduced intra-vaginally.
# The slurry of mefenamic acid applied to a Rhesus monkey comprised a total amount of mefenamic acid that was greater than ten times that applied to a Rhesus monkey using the device of Example 3.
# Blood samples were taken from the Rhesus monkeys and the samples were assayed as described in Example 3, at the time intervals shown in the graph of FIG. 19. The results of this study are shown in the graph of FIG. 19, which indicates the concentration in ng/ml of mefenamic acid found in the plasma of the Rhesus monkeys with time following insertion of the devices (circles) and slurry (triangles) of this example.
# [3] = Plasma mefenamic acid after intra-vaginal wax-layer device, eight monkeys (Example 4); format: in vivo; details: average 6.4 mg mefenamic acid per device, mean of eight Rhesus monkeys
# Procedure: Eight devices were prepared as described in Example 3. The devices were assayed and the average amount of mefenamic found to be in each device was 6.4 mg. Each device was inserted into the vagina of one of eight Rhesus monkeys. The monkeys all weighed in the range 7.27 kg to 8.95 kg.
# Blood samples were taken from the Rhesus monkeys and the samples were assayed as described in Example 3, at the time intervals shown in the graph of FIG. 18. The results of this study are shown in the graph of FIG. 18, which indicates the concentration in ng/ml of mefenamic acid found in the plasma of the Rhesus monkeys with time following insertion of the devices of this example. Each point of the graph of FIG. 18 represents the mean value of the concentration of the eight monkeys.
# [4] = Plasma mefenamic acid after intra-vaginal device with adhesive tape layer (Example 2); format: in vivo, Rhesus monkeys; details: intra-vaginal tampon device, double-sided adhesive tape as fluid-impermeable layer, mefenamic acid powder dusted on; Rhesus monkey plasma
# Source text: Devices according to the present invention were made and used to deliver a pharmaceutical agent intra-vaginally in Rhesus monkeys.
# as §1
# A strip of double-sided adhesive tape was secured to the surface of the tampons to function as the fluid-impermeable layer. Mefenamic acid powder was “dusted” onto the surface of the tape and non-adherent mefenamic acid was removed.
# as §2, §3
structure (smiles),measurement,setting,value
Cc1cccc(Nc2ccccc2C(=O)O)c1C [mefenamic acid],"transport across the vaginal mucosa / systemic circulation (plasma concentration, FIG. 17)",[1],mefenamic acid was transported across the vaginal mucosa and systemic circulation of mefenamic acid was achieved
same,"uptake of mefenamic acid (plasma concentration, FIG. 19)","[2]; introduced intra-vaginally as slurry, total amount greater than ten times that of the device",only limited uptake of mefenamic acid by the monkeys was achieved
same,"uptake of mefenamic acid (plasma concentration, FIG. 19)",[2]; introduced intra-vaginally using the device of Example 3 (wax layer),transportation of mefenamic acid across the vaginal mucosa and systemic circulation of mefenamic acid in the Rhesus monkeys was achieved
same,"transport across the vaginal mucosa / systemic circulation (plasma concentration, FIG. 18)",[3],mefenamic acid was transported across the vaginal mucosa and systemic circulation of mefenamic acid was achieved
same,"transport across the vaginal mucosa / systemic circulation (plasma concentration, FIG. 16)",[4],mefenamic acid was transported across the vaginal mucosa and systemic circulation of mefenamic acid was achieved
